Data from patent publication EP3449923A1, “COMBINATION OF BEN[…]-CANCER AGENT AND A SECOND ANTI-CANCER AGENT” (MEI Pharma, Inc., priority 2007, dated 2008).

Tested on: HCT 116 (colon)
Test: Human xenograft model, tumor growth inhibition
Format: in vivo, female athymic nude mice
Conditions: A8 50 mg/kg po qd x 14 + vehicle (saline) iv D1,8,15
Experimental: To assess in vivo antitumor activity in human xenograft models, female athymic nude mice, 12 to 14 weeks of age, were implanted subcutaneously in the flank with human cancer cells. When the tumors reached approximately 100 mm^3 in size, the mice were pair-matched into various treatment groups. For oral administration, compounds were dissolved in a mixture of 0.5% methylcellulose and 0.1% Tween 80 and administered by gavage to the tumor-bearing mice. For i.v.andi.p..administration, compounds were dissolved in 0.9% NaCI and for the i.v. administration, the compound was administered via the tail vein.
Percent tumor growth inhibition (%TGI) was calculated as %TGI = (Cday a−Tday a)/(Cday a−Cday 1) × 100 [formula]
Where C is the median tumor volume of the control group, T is the median tumor volume of the treatment group, and day a is the day of assessment.
It is evident that the combination of a benzimidazole based anti-cancer agent such as Compound (A8) with the different anti-cancer agents enhanced the anti-tumor effect as compared to administering either of the drug on its own. Table 5: Examples of combination of Compound (A8) and anti-cancer agents in in vivo cancer models

CCCCc1nc2cc(/C=C/C(=O)NO)ccc2n1CCN(CC)CC [Compound A8, 3-[2-Butyl-1-(2-diethylamino-ethyl)-1H-benzimidazol-5-yl]-N-hydroxy-acrylamide]
%TGI at Day 15: 64%
